The test system of assay [1] is JAK1/TYK2 pSTAT5 (Tyr694/699) in THP-1 cell line. The experiment in a line: IFNa-stimulated JAK1/TYK2 pSTAT5 (Tyr694/699) inhibition cellular assay, AlphaLISA. The settings on record: Homo sapiens; THP-1 cells, IFNa-stimulated, AlphaLISA (Assay B); read-out: Cellular_THP1_IFNa-pSTATS_TYK2. In kind it is cell-based. The method in brief:
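An eight-point 6-fold titration of compound (0.04–10000 nM final) is given to THP-1 cells for 1 h before 30 min of IFNa exposure. Phospho-STAT5 is read by AlphaLISA at 615 nm. IC50 values are derived by logistic regression with bottom set to 0 and Hill slope set to −1.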
(In general: In Alpha technology, singlet oxygen from a donor bead excites a nearby acceptor bead.)

A further assay deals with T1, TYK2 JH2 (Homo sapiens, UniProt P29597).
T1 construct: purchased DiscoverX (KINOMEscan KdELECT service); host or cells: E. coli BL21-derived (T7 phage display) or HEK-293
The assay is described as follows: TYK2 JH2 binding assay (KINOMEscan KdELECT competitive binding). As to conditions: TYK2 JH2 domain, DiscoverX KINOMEscan KdELECT (Assay A); read-out: Biochemical TYK2_DiscoverX_JH2_BND_Kd. In outline: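 Beads carrying a biotinylated ligand were mixed with tagged JH2 kinase and compound (11 points, 3-fold steps, 0.9% DMSO) and shaken 1 h at room temperature. After washing, kinase was released with 0.5 μM untagged ligand over 30 min and measured by qPCR to derive Kd.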

The structures appear in SMILES notation.

T1 sequence (P29597 589-875 limits assumed): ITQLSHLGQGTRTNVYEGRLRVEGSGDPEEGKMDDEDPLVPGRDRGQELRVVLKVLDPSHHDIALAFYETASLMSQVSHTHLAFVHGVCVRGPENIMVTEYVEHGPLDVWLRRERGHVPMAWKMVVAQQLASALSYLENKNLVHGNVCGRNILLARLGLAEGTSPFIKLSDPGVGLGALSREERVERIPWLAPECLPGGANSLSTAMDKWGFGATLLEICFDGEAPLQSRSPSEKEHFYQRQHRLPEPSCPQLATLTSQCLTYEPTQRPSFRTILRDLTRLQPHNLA

Take `CNc1ncc(-c2nc3cc(N4CCN(C5COC5)CC4)ccc3o2)c2cc(NC(=O)C3CC3)ncc12` [Example 314, N-(8-(methylamino)-5-(5-(4-(oxetan-3-yl)piperazin-1-yl)benzo[d]oxazol-2-yl)-2,7-naphthyridin-3-yl)cyclopropanecarboxamide]: the IC50 in assay [1] was not above 500 nM. The Kd on TYK2 JH2 was not above 100 nM.
The corresponding values for `CNc1ncc(-c2nc3cc(N4C[C@@H](C)O[C@@H](C)C4)ccc3o2)c2cc(NC(=O)C3CC3)ncc12` [Example 315, N-(5-(5-((2R,6S)~2,6-dimethylmorpholino)benzo[d]oxazol-2-yl)-8-(methylamino)-2,7-naphthyridin-3-yl)cyclopropanecarboxamide] are not above 500 nM and not above 100 nM.
The corresponding values for `CNc1ncc(-c2nc3cc(N4CCOC(C)(C)C4)ccc3o2)c2cc(NC(=O)C3CC3)ncc12` [Example 317, N-(5-(5-(2,2-dimethylmorpholino)benzo[d]oxazol-2-yl)-8-(methylamino)-2,7-naphthyridin-3-yl)cyclopropanecarboxamide] are not above 500 nM and not above 100 nM.
Take `CNc1ncc(-c2nc3cc(N4CCCOCC4)ccc3o2)c2cc(NC(=O)C3CC3)ncc12` [Example 318, N-(5-(5-(1,4-oxazepan-4-yl)benzo[d]oxazol-2-yl)-8-(methylamino)-2,7-naphthyridin-3-yl)cyclopropanecarboxamide]: in assay [1], the IC50 is not above 500 nM. For the same compound, at TYK2 JH2, the Kd was not above 100 nM.
Regarding `CNc1ncc(-c2nc3cc(N4CC(CC(F)F)C4)ccc3o2)c2cc(NC(=O)C3CC3)ncc12` [Example 319, N-(5-(5-(3-(2,2-difluoroethyl)azetidin-1-yl)benzo[d]oxazol-2-yl)-8-(methylamino)-2,7-naphthyridin-3-yl)cyclopropanecarboxamide], the IC50 in assay [1] is not above 500 nM. At TYK2 JH2, the Kd is not above 100 nM.
Consider `CNc1ncc(-c2nc3cc(N4CC[C@H]4C#N)ccc3o2)c2cc(NC(=O)C3CC3)ncc12` [Example 320, (S)—N-(5-(5-(2-cyanoazetidin-1-yl)benzo[d]oxazol-2-yl)-8-(methylamino)-2,7-naphthyridin-3-yl)cyclopropanecarboxamide], for which, in assay [1], the IC50 is not above 500 nM. Further, the Kd at TYK2 JH2 was not above 100 nM.
The corresponding values for `CNc1ncc(-c2nc3cc(N4CC[C@H]4C(N)=O)ccc3o2)c2cc(NC(=O)C3CC3)ncc12` [Example 321, (S)-1-(2-(6-(cyclopropanecarboxamido)-1-(methylamino)-2,7-naphthyridin-4-yl)benzo[d]oxazol-5-yl)azetidine-2-carboxamide] are not above 500 nM and not above 100 nM.
For `CNc1ncc(-c2nc3cc(N4CC5(CN(C(C)=O)C5)C4)ccc3o2)c2cc(NC(=O)C3CC3)ncc12` [Example 322, N-(5-(5-(6-acetyl-2,6-diazaspiro[3.3]heptan-2-yl)benzo[d]oxazol-2-yl)-8-(methylamino)-2,7-naphthyridin-3-yl)cyclopropanecarboxamide], in that order: not above 500 nM and not above 100 nM.
For the compound `CNc1ncc(-c2nc3cc(N4CC(OCCC#N)C4)ccc3o2)c2cc(NC(=O)C3CC3)ncc12` [Example 323, N-(5-(5-(3-(2-cyanoethoxy)azetidin-1-yl)benzo[d]oxazol-2-yl)-8-(methylamino)-2,7-naphthyridin-3-yl)cyclopropanecarboxamide], the IC50 in assay [1] was not above 500 nM. At TYK2 JH2, the Kd was not above 100 nM.
On to `CNc1ncc(-c2nc3cc(N4CC(OCCOC)C4)ccc3o2)c2cc(NC(=O)C3CC3)ncc12` [Example 324, N-(5-(5-(3-(2-methoxyethoxy)azetidin-1-yl)benzo[d]oxazol-2-yl)-8-(methylamino)-2,7-naphthyridin-3-yl)cyclopropanecarboxamide], for which the IC50 in assay [1] is not above 500 nM. The Kd at TYK2 JH2 is not above 100 nM.
The corresponding values for `CNc1ncc(-c2nc3cc(N4CC5CC(CN(C)C5)C4)ccc3o2)c2cc(NC(=O)C3CC3)ncc12` [Example 325, N-(5-(5-(7-methyl-3,7-diazabicyclo[3.3.1]nonan-3-yl)benzo[d]oxazol-2-yl)-8-(methylamino)-2,7-naphthyridin-3-yl)cyclopropanecarboxamide] are not above 500 nM and not above 100 nM.
For `CNc1ncc(-c2nc3cc(N4CC5CC(CN(C(C)=O)C5)C4)ccc3o2)c2cc(NC(=O)C3CC3)ncc12` [Example 326, N-(5-(5-(7-acetyl-3,7-diazabicyclo[3.3.1]nonan-3-yl)benzo[d]oxazol-2-yl)-8-(methylamino)-2,7-naphthyridin-3-yl)cyclopropanecarboxamide], in that order: not above 500 nM and not above 100 nM.
In the case of `CNc1ncc(-c2nc3cc(N4CC5CN(C)CC(C4)O5)ccc3o2)c2cc(NC(=O)C3CC3)ncc12` [Example 327, N-(5-(5-(7-methyl-9-oxa-3,7-diazabicyclo[3.3.1]nonan-3-yl)benzo[d]oxazol-2-yl)-8-(methylamino)-2,7-naphthyridin-3-yl)cyclopropanecarboxamide], the IC50 in assay [1] was not above 500 nM. Moreover, the Kd on TYK2 JH2 is not above 100 nM.
Regarding `CNc1ncc(-c2nc3cc(N4CCCS4(=O)=O)ccc3o2)c2cc(NC(=O)C3CC3)ncc12` [Example 328, N-(5-(5-(1,1-dioxidoisothiazolidin-2-yl)benzo[d]oxazol-2-yl)-8-(methylamino)-2,7-naphthyridin-3-yl)cyclopropanecarboxamide], in assay [1], the IC50 is not above 500 nM. The Kd at TYK2 JH2 was not above 100 nM.
For `CNc1ncc(-c2nc3cc(N4CCOC(C(F)F)C4)ccc3o2)c2cc(NC(=O)C3CC3)ncc12` (centres unmarked) [Example 329, N-(5-(5-(2-(difluoromethyl)morpholino)benzo[d]oxazol-2-yl)-8-(methylamino)-2,7-naphthyridin-3-yl)cyclopropanecarboxamide], in assay [1], the IC50 was not above 500 nM. The Kd at TYK2 JH2 was not above 100 nM.
`CNc1ncc(-c2nc3cc(N4CCOC(C(C)(F)F)C4)ccc3o2)c2cc(NC(=O)C3CC3)ncc12` (centres unmarked) [Example 330, N-(5-(5-(2-(1,1-difluoroethyl)morpholino)benzo[d]oxazol-2-yl)-8-(methylamino)-2,7-naphthyridin-3-yl)cyclopropanecarboxamide]: the IC50 in assay [1] is not above 500 nM. Also, the Kd on TYK2 JH2 is not above 100 nM.
Take `CNc1ncc(-c2nc3cc(N4CCOC(CO)C4)ccc3o2)c2cc(NC(=O)C3CC3)ncc12` (centres unmarked) [Example 333, N-(5-(5-(2-(hydroxymethyl)morpholino)benzo[d]oxazol-2-yl)-8-(methylamino)-2,7-naphthyridin-3-yl)cyclopropanecarboxamide]: the IC50 in assay [1] is not above 500 nM. At TYK2 JH2, the Kd is not above 100 nM.
For `C=C1COCCN(c2ccc3oc(-c4cnc(NC)c5cnc(NC(=O)C6CC6)cc45)nc3c2)C1` [Example 334, N-(8-(methylamino)-5-(5-(6-methylene-1,4-oxazepan-4-yl)benzo[d]oxazol-2-yl)-2,7-naphthyridin-3-yl)cyclopropanecarboxamide], in that order: not above 500 nM and not above 100 nM.
With `CNc1ncc(-c2nc3cc(N4CCOCC(C)C4)ccc3o2)c2cc(NC(=O)C3CC3)ncc12` (centres unmarked) [Example 335, N-(5-(5-(6-methyl-1,4-oxazepan-4-yl)benzo[d]oxazol-2-yl)-8-(methylamino)-2,7-naphthyridin-3-yl)cyclopropanecarboxamide], the IC50 in assay [1] is not above 500 nM. Further, at TYK2 JH2, the Kd is not above 100 nM.
Regarding `CNc1ncc(-c2nc3cc(OCC4COC4)ccc3o2)c2cc(NC(=O)C3CC3)ncc12` [Example 336, N-(8-(methylamino)-5-(5-(oxetan-3-ylmethoxy)benzo[d]oxazol-2-yl)-2,7-naphthyridin-3-yl)cyclopropanecarboxamide], in assay [1], the IC50 is not above 500 nM. Moreover, at TYK2 JH2, the Kd is not above 100 nM.
On to `CNc1ncc(-c2nc3cc(OCC4CCC4)ccc3o2)c2cc(NC(=O)C3CC3)ncc12` [Example 337, N-(5-(5-(cyclobutylmethoxy)benzo[d]oxazol-2-yl)-8-(methylamino)-2,7-naphthyridin-3-yl)cyclopropanecarboxamide], for which, in assay [1], the IC50 was more than 500 nM. The Kd at TYK2 JH2 was not above 100 nM.
For `CNc1ncc(-c2nc3cc(OCC#N)ccc3o2)c2cc(NC(=O)C3CC3)ncc12` [Example 338, N-(5-(5-(cyanomethoxy)benzo[d]oxazol-2-yl)-8-(methylamino)-2,7-naphthyridin-3-yl)cyclopropanecarboxamide], the IC50 in assay [1] was not above 500 nM. At TYK2 JH2, the Kd is not above 100 nM.
For `CNc1ncc(-c2nc3cc(OCF)ccc3o2)c2cc(NC(=O)C3CC3)ncc12` [Example 339, N-(5-(5-(fluoromethoxy)benzo[d]oxazol-2-yl)-8-(methylamino)-2,7-naphthyridin-3-yl)cyclopropanecarboxamide], in that order: not above 500 nM and not above 100 nM.
As to `CNc1ncc(-c2nc3cc(Oc4ccncc4)ccc3o2)c2cc(NC(=O)C3CC3)ncc12` [Example 340, N-(8-(methylamino)-5-(5-(pyridin-4-yloxy)benzo[d]oxazol-2-yl)-2,7-naphthyridin-3-yl)cyclopropanecarboxamide], in assay [1], the IC50 was not above 500 nM. The Kd at TYK2 JH2 was not above 100 nM.
For `CNc1ncc(-c2nc3cc(Oc4ccn(C)n4)ccc3o2)c2cc(NC(=O)C3CC3)ncc12` [Example 341, N-(5-(5-((1-methyl-1H-pyrazol-3-yl)oxy)benzo[d]oxazol-2-yl)-8-(methylamino)-2,7-naphthyridin-3-yl)cyclopropanecarboxamide], in that order: not above 500 nM and not above 100 nM.

Source of the values: patent US20240025906A1 (NEURON23, INC., priority 2022, published 2024).
